Assay results published in patent publication US10391081B2, “FGFR gatekeeper mutant gene and drug targeting same” (CHUGAI SEIYAKU KABUSHIKI KAISHA, priority 2013, dated 2019).

Target: T1, TEL-fused FGFR2 V564F mutant polypeptide (Homo sapiens, UniProt P21802, V564F)
T1 construct: expressed in transfected cells; for A6/A7 grown as subcutaneous tumours in BALB/c nude mice
Assay: In vitro cell proliferation inhibition (WST-8), Ba/F3 strain stably expressing TEL-fused FGFR2 V564F mutant
Type: cell-based
Conditions: cultured four days, FIG. 3
Source text: A polynucleotide encoding the dimerization domain of wild-type TEL (SEQ ID NO: 33) and a polynucleotide encoding the intracellular domain of wild-type FGFR2 (SEQ ID NO: 1) were fused by a PCR-based site-directed mutagenesis method to produce a polynucleotide (SEQ ID NO: 11) encoding the TEL-fused wild-type FGFR2 (SEQ ID NO: 34). Using the polynucleotide encoding the TEL-fused wild-type FGFR2 as a template, a polynucleotide (SEQ ID NO: 12) encoding the TEL-fused FGFR2 V564F mutant (SEQ ID NO: 35) was prepared by a PCR-based site-directed mutagenesis method.

T1 sequence (P21802 with tags, fused parts or gaps V564F): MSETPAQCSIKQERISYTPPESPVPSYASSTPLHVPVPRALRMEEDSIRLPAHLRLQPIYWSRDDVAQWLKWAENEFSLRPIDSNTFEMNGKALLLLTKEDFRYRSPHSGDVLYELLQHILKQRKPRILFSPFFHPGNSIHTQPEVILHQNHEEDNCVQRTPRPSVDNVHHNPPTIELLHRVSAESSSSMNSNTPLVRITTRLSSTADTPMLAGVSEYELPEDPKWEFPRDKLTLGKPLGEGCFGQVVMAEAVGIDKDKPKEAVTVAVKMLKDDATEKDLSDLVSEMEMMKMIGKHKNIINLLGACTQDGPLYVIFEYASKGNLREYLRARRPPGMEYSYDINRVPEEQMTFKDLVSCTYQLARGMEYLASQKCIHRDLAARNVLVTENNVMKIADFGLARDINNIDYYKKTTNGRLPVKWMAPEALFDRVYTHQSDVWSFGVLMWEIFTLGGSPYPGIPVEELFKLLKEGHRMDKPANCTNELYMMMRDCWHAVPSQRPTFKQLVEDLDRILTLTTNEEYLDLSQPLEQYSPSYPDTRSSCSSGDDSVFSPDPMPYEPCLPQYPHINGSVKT

| SMILES | cell proliferation-inhibiting activity compared to the strain stably expressing TEL-fused wild-type FGFR2 |
| --- | --- |
| CCN1CCN(c2ccc(Nc3cc(N(C)C(=O)Nc4c(Cl)c(OC)cc(OC)c4Cl)ncn3)cc2)CC1 [Compound D, BGJ-398] | greatly weakened |
| COc1cc2c(Oc3ccc4[nH]c(C)cc4c3F)ncnc2cc1OCCCN1CCCC1 [E, cediranib] | greatly weakened |
